Experimental data: US6350410B1, “Method and composition for inhibiting biological fouling in an irrigation system” (CH20 Incorporated, priority 1995, dated 2002)

Tested on: pond water supporting algal and protozoan life, inoculated with bacterium escherichia coli
Assay: Plate count test on pond water sample inoculated with escherichia coli
Type: cell-based
Details: for population (plate count): after five days, untreated sample 100 organisms per milliliter
Procedure: A sample of pond water was obtained. […] The pond water was inoculated with a large population of bacterium escherichia coli. A plate count test was run on the pond water sample to determine the population. […] Dilution was performed with pond water to yield a population that would register on a plate count test. One liter of the sample was removed and left untreated.
A second one liter portion was taken from the pond water sample. A composition of about 2% active zinc sulfate was mixed with the water sample to yield active zinc at about 0.1 ppm.
A third one liter portion was taken from the pond water sample. A composition of about 2% active zinc sulfate was mixed with the water sample to yield active zinc at about 10.0 ppm.
A fourth one liter portion was taken from the pond water sample. A zinc chelated product was prepared containing about 2% active zinc sulfate which was chelated on a 1:1 molar ratio with 1-hydroxyethane 1,1-diphosphonic acid (HEDPA). The chelated zinc product was added to the sample to yield chelated zinc at about 0.1 ppm.
A fifth one liter portion was taken from the pond water sample. A zinc chelated product was prepared containing about 2% active zinc sulfate which was chelated on a 1:1 molar ratio with HEDPA. The chelated zinc product was added to the sample to yield chelated zinc at about 10.0 ppm.

O=S(=O)([O-])[O-].[Zn+2] [active zinc, zinc sulfate]
population (plate count) (about 0.1 ppm in one liter pond water sample): 1 organism per milliliter
population (plate count) (about 10.0 ppm in one liter pond water sample): 6 organisms per milliliter
treatment of biological fouling (in words) (about 10.0 ppm, compared to the untreated sample): effective treatment
